This is an account of results in US9624170B2, “4-(piperrazin-1-yl)-pyrrolidin-2-one compounds as monoacylglycerol lipase (MAGL) inhibitors” (TAKEDA PHARMACEUTICAL COMPANY LIMITED, priority 2013, dated 2017).

The target in this assay is T1, human MAGL (His-hMAGL) (Homo sapiens, UniProt Q99685).
T1 construct: made in house; host or cells: Escherichia coli BL21(DE3)
T1 sequence (Q99685 1-303): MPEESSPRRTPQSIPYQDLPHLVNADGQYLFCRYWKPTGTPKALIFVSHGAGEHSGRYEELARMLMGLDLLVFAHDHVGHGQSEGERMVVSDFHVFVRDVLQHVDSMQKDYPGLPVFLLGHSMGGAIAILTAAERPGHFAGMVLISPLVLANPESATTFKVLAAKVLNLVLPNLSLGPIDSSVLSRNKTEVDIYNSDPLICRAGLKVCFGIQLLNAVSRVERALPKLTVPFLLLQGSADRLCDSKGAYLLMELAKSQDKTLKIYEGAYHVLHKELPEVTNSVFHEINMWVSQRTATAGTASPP
As to the kind of experiment: Measurement of MAGL inhibitory activity by absorbance. The format is biochemical. The note with it: 10 μM test compound; substrate p-nitrophenyl acetate, absorbance at 405 nm. The text has this: (1) Cloning of Human MGLL Encoding MAGL Protein and Construction of Expression Plasmid
Human MGLL cDNA was obtained by PCR using human ORF Clone (DNAForm; Clone ID: 100004585) as a template. For PCR, two kinds of primers: […]
The obtained PCR product was digested with Bam HI and Not I (Takara Bio Inc.), inserted into the Bam HI/Not I site of pET21HH(V) (pET21a (Novagen) inserted with His x6 and TEV Protease recognition sequence) by using Ligation High (Toyobo Co., Ltd.), and introduced into ECOS™ JM109 (Nippon Gene Co., Ltd.), whereby expression plasmid pET21HH(V)/His-hMGLLv2 for Escherichia coli was constructed. (2) Preparation of Recombinant Polyhistidine Tagged Human MAGL Protein
Recombinant His-hMAGL protein was prepared by transforming ECOS™ Competent E. coli BL21(DE3) (Nippon Gene Co., Ltd.) with the pET21HH(V)/His-hMGLLv2 plasmid prepared above. Escherichia coli obtained by transformation was inoculated to 10 mL of LB medium (1% peptone, 0.5% yeast extract, 0.5% sodium chloride, 0.01% ampicillin), and cultured at 30° C. for 16 hr. […] When the turbidity of the culture medium reached about 500 Klett unit, the culture temperature was lowered to 16° C., isopropyl-β-D-thiogalactopyranoside (IPTG) was added to a final concentration of 1 mM, and the mixture was further cultured for 19 hr. After the completion of culture, the culture medium was centrifuged (4° C., 6,000 rpm, 10 min) to give His-hMAGL expression Escherichia coli. Then, His-hMAGL expression Escherichia coli was suspended in 50 mM Tris-HCl (pH 8.0, 100 ml) containing 1% Triton X-100, 20 mM imidazole, 3 mM DTT, 5 U/mL Benzonase (Merck) and 150 mM NaCl, sufficiently cooled, and subjected to sonication at […]=60%, 15 sec/ON, 30 sec/OFF for 3 min using ¾″ solid type crushed horn of BRANSON Digital Sonifier 450 (Central Scientific Commerce, Inc.). Furthermore, the homogenate was centrifuged (4° C., 15,000 rpm, 15 min) and the supernatant was obtained. As the purification apparatus, AKTA explorer 10s (GE Healthcare Japan Corporation) was used at 4° C. To the obtained supernatant was added 5M NaCl to the final salt concentration of 0.3 M, and the mixture was flown through and adsorbed to 5 mL of Ni-NTA Superflow Cartridges (QIAGEN) equilibrated in advance with buffer A (50 mM Tris-HCl (pH 8.0) containing 0.05% TritonX-100, 1 mM DTT, 300 mM NaCl). The column was sufficiently washed with buffer A containing 20 mM imidazole and His-hMAGL was eluted with buffer A containing imidazole at a final concentration of 250 mM. The eluate was further subjected to gel filtration using HiLoad 26/600 Superdex 200 pg (GE Healthcare Japan Corporation) equilibrated with 50 mM Tris-HCl pH 8.0 containing 10% glycerol, 0.05% TritonX-100, 1 mM DTT, 150 mM NaCl. The eluted fraction was concentrated by Amicon Ultra-15 10K (Merck Millipore) to give purified His-hMAGL protein. The protein concentration was measured by BCA Protein Assay Kit (Thermo Fisher Scientific) using BSA as the standard.
(3) Measurement of MAGL Inhibitory Activity
His-hMAGL obtained above was diluted with enzyme reaction buffer (10 mM Tris-HCl, pH 7.5, 1 mM EDTA, 0.1 (w/v) % Triton X-100) to a concentration of 60 ng/mL. […] Thereafter, to each well was added 750 μM p-nitrophenyl acetate (Wako Pure Chemical Industries, Ltd.) by 5 μL, and the absorbance at 405 nm was measured every 2 minutes up to 10 minutes by EnVision (PerkinElmer). The amount of change was obtained by subtracting the absorbance measured immediately after the start of the reaction from the absorbance measured 10 min after the start of the reaction.
MAGL inhibitory rate (%) was calculated according to the following calculation formula. (1−(absorbance change amount of test compound addition group−absorbance change amount of enzyme addition-free group)[…](absorbance change amount of test compound addition-free group−absorbance change amount of enzyme addition-free group))×100
As a reminder, the inhibition is the percentage by which the read-out fell short of the control. High values mean a strong effect, low ones a weak effect. `O=C(c1cocn1)N1CCN(C2CC(=O)N(c3ccc(Oc4ccccc4)cc3)C2)CC1` (centres unmarked) [Example 36, 4-(4-(1,3-oxazol-4-ylcarbonyl)piperazin-1-yl)-1-(4-phenoxyphenyl)pyrrolidin-2-one] displayed an inhibition at 10 µM of 95%.
The molecule `O=C(c1nccs1)N1CCN(C2CC(=O)N(c3ccc(Cc4ccccc4)cc3)C2)CC1` (centres unmarked) [Example 38, 1-(4-benzylphenyl)-4-(4-(1,3-thiazol-2-ylcarbonyl)piperazin-1-yl)pyrrolidin-2-one] returned an inhibition at 10 µM of 99%.
In the case of `COc1cccc(Oc2ccc(N3CC(N4CCN(C(=O)c5nccs5)CC4)CC3=O)cc2)c1` (centres unmarked) [Example 44, 1-(4-(3-methoxyphenoxy)phenyl)-4-(4-(1,3-thiazol-2-ylcarbonyl)piperazin-1-yl)pyrrolidin-2-one] it was 97%; in that of `COc1ccccc1Oc1ccc(N2CC(N3CCN(C(=O)c4nccs4)CC3)CC2=O)cc1` (centres unmarked) [Example 45, 1-(4-(2-methoxyphenoxy)phenyl)-4-(4-(1,3-thiazol-2-ylcarbonyl)piperazin-1-yl)pyrrolidin-2-one], 97%; in that of `O=C(c1nccs1)N1CCN(C2CC(=O)N(c3ccc4[nH]ncc4c3)C2)CC1` (centres unmarked) [Example 47, 1-(1H-indazol-5-yl)-4-(4-(1,3-thiazol-2-ylcarbonyl)piperazin-1-yl)pyrrolidin-2-one], 96%.
For `O=C(c1nccs1)N1CCN(C2CC(=O)N(c3cnc4c(ccn4-c4ccc(F)cc4)c3)C2)CC1` (centres unmarked) [Example 51, 1-(1-(4-fluorophenyl)-1H-pyrrolo[2,3-b]pyridin-5-yl)-4-(4-(1,3-thiazol-2-ylcarbonyl)piperazin-1-yl)pyrrolidin-2-one] the value was 97%; for `O=C(c1nccs1)N1CCN(C2CC(=O)N(c3ccc4c(ccn4-c4ncc(C(F)(F)F)cn4)c3)C2)CC1` (centres unmarked) [Example 52, 4-(4-(1,3-Thiazol-2-ylcarbonyl)piperazin-1-yl)-1-(1-(5-(trifluoromethyl)pyrimidin-2-yl)-1H-indol-5-yl)pyrrolidin-2-one], 97%.
In the case of `O=C(c1nccs1)N1CCN(C2CC(=O)N(c3ccc4c(ccn4-c4ccc(C(F)(F)F)cn4)c3)C2)CC1` (centres unmarked) [Example 53, 4-(4-(1,3-Thiazol-2-ylcarbonyl)piperazin-1-yl)-1-(1-(5-(trifluoromethyl)pyridin-2-yl)-1H-indol-5-yl)pyrrolidin-2-one], testing at 10 µM gave an inhibition of 98%.
Consider `O=C(c1nccs1)N1CCN(C2CC(=O)N(c3ccc(C4CC4)cc3)C2)CC1` (centres unmarked) [Example 57, 1-(4-Cyclopropylphenyl)-4-(4-(1,3-thiazol-2-ylcarbonyl)piperazin-1-yl)pyrrolidin-2-one], for which at 10 µM the inhibition was 90%.
For `O=C(c1nccs1)N1CCN(C2CC(=O)N(c3ccccc3OCc3ccccc3)C2)CC1` (centres unmarked) [Example 58, 1-(2-(benzyloxy)phenyl)-4-(4-(1,3-thiazol-2-ylcarbonyl)piperazin-1-yl)pyrrolidin-2-one] the value was 97%; for `O=C(c1nccs1)N1CCN(C2CC(=O)N(c3ccc(OCc4ccccc4)cc3)C2)CC1` (centres unmarked) [Example 60, 1-(4-(Benzyloxy)phenyl)-4-(4-(1,3-thiazol-2-ylcarbonyl)piperazin-1-yl)pyrrolidin-2-one], 98%; for `O=C(c1nccs1)N1CCN(C2CC(=O)N(c3ccc(-c4ccc(Cl)cc4)cc3)C2)CC1` (centres unmarked) [Example 63, 1-(4′-chlorobiphenyl-4-yl)-4-(4-(1,3-thiazol-2-ylcarbonyl)piperazin-1-yl)pyrrolidin-2-one], 95%.
In the case of `O=C(c1nccs1)N1CCN(C2CC(=O)N(c3cccc(-c4ccccn4)c3)C2)CC1` (centres unmarked) [Example 64, 1-(3-(pyridin-2-yl)phenyl)-4-(4-(1,3-thiazol-2-ylcarbonyl)piperazin-1-yl)pyrrolidin-2-one] it was 90%; in that of `O=C(c1nccs1)N1CCN(C2CC(=O)N(c3cccc(-c4cccnc4)c3)C2)CC1` (centres unmarked) [Example 65, 1-(3-(pyridin-3-yl)phenyl)-4-(4-(1,3-thiazol-2-ylcarbonyl)piperazin-1-yl)pyrrolidin-2-one], 93%.
For `O=C(c1nccs1)N1CCN(C2CC(=O)N(c3cccc(-c4ccncc4)c3)C2)CC1` (centres unmarked) [Example 66, 1-(3-(pyridin-4-yl)phenyl)-4-(4-(1,3-thiazol-2-ylcarbonyl)piperazin-1-yl)pyrrolidin-2-one] the value was 91%; for `O=C(c1nccs1)N1CCN(C2CC(=O)N(c3cccc4ccccc34)C2)CC1` (centres unmarked) [Example 70, 1-(1-naphthyl)-4-(4-(1,3-thiazol-2-ylcarbonyl)piperazin-1-yl)pyrrolidin-2-one], 91%; for `O=C(c1nccs1)N1CCN(C2CC(=O)N(c3ccc4cc(Br)ccc4c3)C2)CC1` (centres unmarked) [Example 71, 1-(6-brorno-2-naphthyl)-4-(4-(1,3-thiazol-2-ylcarbonyl)piperazin-1-yl)pyrrolidin-2-one], 90%.
`O=C(c1nccs1)N1CCN(C2CC(=O)N(c3ccc4c(c3)oc3ccccc34)C2)CC1` (centres unmarked) [Example 72, 1-(Dibenzo[b,d]furan-3-yl)-4-(4-(1,3-thiazol-2-ylcarbonyl)piperazin-1-yl)pyrrolidin-2-one] came in with an inhibition at 10 µM of 92%.
For `O=C(c1nccs1)N1CCN(C2CC(=O)N(c3cccc(I)c3)C2)CC1` (centres unmarked) [Example 75, 1-(3-iodophenyl)-4-(4-(1,3-thiazol-2-ylcarbonyl)piperazin-1-yl)pyrrolidin-2-one] the value was 95%; for `O=C(c1nccs1)N1CCN(C2CC(=O)N(c3cccc(-c4ccc(F)cc4)c3)C2)CC1` (centres unmarked) [Example 76, 1-(4′-fluorobiphenyl-3-yl)-4-(4-(1,3-thiazol-2-ylcarbonyl)piperazin-1-yl)pyrrolidin-2-one], 95%.
In the case of `O=C(c1nccs1)N1CCN(C2CC(=O)N(c3cccc(Nc4ccc(F)cc4)c3)C2)CC1` (centres unmarked) [Example 77, 1-(3-((4-Fluorophenyl)amino)phenyl)-4-(4-(1,3-thiazol-2-ylcarbonyl)piperazin-1-yl)pyrrolidin-2-one] it was 96%.
For `O=C(c1nccs1)N1CCN(C2CC(=O)N(c3cccc(Oc4ccc(F)cc4)c3)C2)CC1` (centres unmarked) [Example 79, 1-(3-(4-Fluorophenoxy)phenyl)-4-(4-(1,3-thiazol-2-ylcarbonyl)piperazin-1-yl)pyrrolidin-2-one] the value was 95%; for `O=C(c1nccs1)N1CCN(C2CC(=O)N(c3ccc4c(cnn4-c4ccc(F)cn4)c3)C2)CC1` (centres unmarked) [Example 81, 1-(1-(5-fluoropyridin-2-yl)-1H-indazol-5-yl)-4-(4-(1,3-thiazol-2-ylcarbonyl)piperazin-1-yl)pyrrolidin-2-one], 97%.
